{"source": "patent US7576101B2", "about": "“Composition for and treatment of demyelinating diseases and paralysis by administration of remyelinating agents” (Elan Pharmaceuticals, Inc., priority 2003, dated 2009)", "key": {"[1]": {"tested_on": "experimental allergic encephalomyelitis in female Hartley guinea pigs", "test": "Chronic EAE in guinea pigs: mean cell counts in spinal cord (H-E sections)", "format": "in vivo, guinea pig", "details": "for cell number in spinal cord vs saline-treated animals: after 10, 20, 30 or 40 days of therapy, p<0.001 two-way ANOVA; for mean cell count in spinal cord 10 days after removal vs continuous treatment: p<0.05 ANOVA on ranks with SNK test", "experimental": "To quantify the abnormalities observed in the spinal cord, sections stained with H-E were divided into 12 representative pie-shaped areas. In each area, the number of cells within a 0.12 mm^2 field of view was counted using Sigma Scan Pro image analysis software (SPSS Inc.), and the combined mean number of cells in all 12 areas was calculated for the whole spinal cord (36 fields of view per animal). Note that as all cell nuclei were counted, the number of cells may include neurons and glial cells in addition to infiltrates.\nStatistical Analysis. Statistical analysis was performed using SigmaStat v2 software (SPSS Inc.). Clinical scores were assessed using the Mann Whitney rank sum test, while pathological scores were assessed with a two-Way ANOVA. Quantitative abnormalities were compared using Kruskal-Wallis ANOVA on ranks. In each case, p<0.05 was considered significant. A linear regression was performed on the mean cell counts in the spinal cord."}, "α4β1": {"target": "T1, α4β1 (Homo sapiens, UniProt P05556+P13612)", "T1 construct": "endogenous in cells; host or cells: Jurkat cells", "T1 sequence (P13612 34-1032)": "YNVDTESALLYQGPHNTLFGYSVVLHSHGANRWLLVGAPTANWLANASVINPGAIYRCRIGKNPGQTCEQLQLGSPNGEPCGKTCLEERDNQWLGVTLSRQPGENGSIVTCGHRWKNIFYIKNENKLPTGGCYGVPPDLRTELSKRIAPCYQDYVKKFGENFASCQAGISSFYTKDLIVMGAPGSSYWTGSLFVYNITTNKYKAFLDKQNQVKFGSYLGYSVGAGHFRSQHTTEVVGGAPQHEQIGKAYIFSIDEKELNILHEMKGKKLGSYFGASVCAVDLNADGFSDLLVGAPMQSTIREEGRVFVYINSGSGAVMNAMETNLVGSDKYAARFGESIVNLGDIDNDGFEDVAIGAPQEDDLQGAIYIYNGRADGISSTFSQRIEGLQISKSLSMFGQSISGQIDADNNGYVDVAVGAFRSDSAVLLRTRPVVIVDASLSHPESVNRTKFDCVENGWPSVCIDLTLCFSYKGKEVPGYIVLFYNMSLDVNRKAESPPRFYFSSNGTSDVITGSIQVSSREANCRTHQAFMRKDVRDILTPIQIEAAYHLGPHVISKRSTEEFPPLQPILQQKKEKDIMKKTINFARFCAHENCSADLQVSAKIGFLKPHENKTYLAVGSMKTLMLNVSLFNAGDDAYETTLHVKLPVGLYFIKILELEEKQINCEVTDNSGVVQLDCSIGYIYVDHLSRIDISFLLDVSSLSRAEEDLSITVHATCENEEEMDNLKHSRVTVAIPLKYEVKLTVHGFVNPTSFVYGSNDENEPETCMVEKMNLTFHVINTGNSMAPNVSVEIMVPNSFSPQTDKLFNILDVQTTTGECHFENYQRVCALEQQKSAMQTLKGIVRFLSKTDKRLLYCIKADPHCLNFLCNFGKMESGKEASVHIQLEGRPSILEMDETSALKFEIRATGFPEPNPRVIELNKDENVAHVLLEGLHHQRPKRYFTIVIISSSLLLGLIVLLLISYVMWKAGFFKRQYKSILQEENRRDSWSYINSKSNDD", "T1 sequence (P05556 21-798)": "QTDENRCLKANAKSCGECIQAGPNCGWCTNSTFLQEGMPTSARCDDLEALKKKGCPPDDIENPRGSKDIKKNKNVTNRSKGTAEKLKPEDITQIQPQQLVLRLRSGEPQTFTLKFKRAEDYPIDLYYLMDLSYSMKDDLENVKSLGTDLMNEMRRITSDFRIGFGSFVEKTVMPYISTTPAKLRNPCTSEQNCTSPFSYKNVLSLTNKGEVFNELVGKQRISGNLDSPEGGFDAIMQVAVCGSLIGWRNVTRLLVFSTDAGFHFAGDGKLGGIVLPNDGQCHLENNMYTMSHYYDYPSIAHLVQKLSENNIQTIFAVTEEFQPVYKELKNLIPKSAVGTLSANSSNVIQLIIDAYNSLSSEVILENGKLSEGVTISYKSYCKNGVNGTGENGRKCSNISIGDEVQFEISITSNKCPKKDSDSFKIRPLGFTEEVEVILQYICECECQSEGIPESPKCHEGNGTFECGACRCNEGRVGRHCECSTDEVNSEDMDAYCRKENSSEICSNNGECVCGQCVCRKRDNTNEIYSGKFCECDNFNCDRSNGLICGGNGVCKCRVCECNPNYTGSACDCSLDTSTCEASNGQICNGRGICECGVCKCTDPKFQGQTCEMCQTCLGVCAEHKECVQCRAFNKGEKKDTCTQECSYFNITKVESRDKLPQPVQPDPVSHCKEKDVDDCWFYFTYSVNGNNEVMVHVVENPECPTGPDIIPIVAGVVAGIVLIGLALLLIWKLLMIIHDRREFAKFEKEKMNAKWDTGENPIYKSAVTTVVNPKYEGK", "test": "In vitro saturation assay for determining binding of candidate compounds to α4β1 (Jurkat cells in plasma, 15/7 antibody, FACS)", "format": "cell-based", "details": "guinea pig, 30 mg/kg twice a day subcutaneously", "experimental": "The following describes an in vitro assay to determine the plasma levels needed for a compound to be active in the Experimental Autoimmune Encephalomyelitis (“EAE”) model, described in the next example, or in other in vivo models.\nLog-growth Jurkat cells are washed and resuspended in normal animal plasma containing 20 μg/ml of the 15/7 antibody (described in the above example).\nThe Jurkat cells are diluted two-fold into either normal plasma samples containing known candidate compound amounts in various concentrations ranging from 66 μg/mL to 0.01 μg/mL, using a standard 12 point serial dilution for a standard curve, or into plasma samples obtained from the peripheral blood of candidate compound-treated animals.\nCells are then incubated for 30 minutes at room temperature, washed twice with phosphate-buffered saline (“PBS”) containing 2% fetal bovine serum and 1 mM each of calcium chloride and magnesium chloride (assay medium) to remove unbound 15/7 antibody. […]\nCells are washed twice with assay medium and resuspended in the same. They are then analyzed with a standard fluorescence activated cell sorter analysis as described in Yednock et al., J. Bio. […]\nThe data is then graphed as fluorescence versus dose, e.g., in a normal dose-response fashion. […]"}, "[2]": {"tested_on": "guinea pig model of CP-EAE", "test": "Remyelination and functional recovery in guinea pig model of CP-EAE", "format": "in vivo", "description": "The number of lesions showing myelin pallor was divided by the total number of lesions within cross sections of spinal cord taken throughout its length from each animal (FIG. 10) (for the method see Warrington et al., 2000, Proc. Nat'l Acad. Sci. USA 97: 6820-5). […] In contrast, after 20 days of N-[N-(3-pyridinesulfonyl)-L-3,3-dimethyl-4-thiaprolyl]-O-[1-methylpiperazin-4-ylcarbonyl]-L-tyrosine isopropyl ester administration, the frequency of shadow plaques in the spinal cord was increased over saline-treated animals, reaching 68%; after 30 and 40 days, the incidence was 77% and 87%, respectively (p<0.001, 2-way ANOVA with Tukey test).\nThe overall degree of plaque remyelination in the spinal cord was also measured. […] Total lesion area was determined for each animal by tracing all lesions within all spinal cord sections and summing the areas. Likewise, the total area of remyelination was measured by tracing regions of myelin pallor. FIGS. 10C-F plot the total lesion area against the percentage of remyelination. In saline-treated animals, lesions rarely show any evidence of repair, with means ranging between 2 and 11%, and there were no significant differences over the 40-day treatment period (FIGS. 10C-F). In contrast, after 20, 30 or 40 days of N-[N-(3-pyridinesulfonyl)-L-3,3-dimethyl-4-thiaprolyl]-O-[1-methylpiperazin-4-ylcarbonyl]-L-tyrosine isopropyl ester treatment, the majority of lesions identified show a variable degree of remyelination ranged from 2 to 100% in the majority of lesions (mean area of remyelination approximately 50%) (FIGS. 10D-5). (p<0.001, 2-way ANOVA with Tukey test). Therefore while lesions were evident in all animals throughout the 40-day treatment period, N-[N-(3-pyridinesulfonyl)-L-3,3-dimethyl-4-thiaprolyl]-O-[1-methylpiperazin-4-ylcarbonyl]-L-tyrosine isopropyl ester increased the incidence and percentage of remyelination. Furthermore, evidence of remyelination in N-[N-(3-pyridinesulfonyl)-L-3,3-dimethyl-4-thiaprolyl]-O-[1-methylpiperazin-4-ylcarbonyl]-L-tyrosine isopropyl ester-treated animals is consistent with an observed regain of motor function. The starting point for treatment was a clinical score of 2, which denotes full bilateral hind limb paralysis. […] Functional recovery was never observed in control animals."}, "[3]": {"details": "listed as N-[N-(3-pyridinesulfonyl)-L-3,3-dimethyl-4-thiaprolyl]-O-[1-methylpiperzain-4-yl"}}, "data": [{"smiles": "CC(C)OC(=O)[C@H](Cc1ccc(OC(=O)N2CCN(C)CC2)cc1)NC(=O)[C@H]1N(S(=O)(=O)c2cccnc2)CSC1(C)C", "note": "[N-[N-(3-pyridinesulfonyl)-L-3,3-dimethyl-4-thiaprolyl]-O-[1-methylpiperazin-4-ylcarbonyl]-L-tyrosine isopropyl ester]", "values": [{"measurement": "cell number in spinal cord vs saline-treated animals", "setting": "[1]", "result": "significant reduction"}, {"measurement": "cell number in spinal cord vs saline-treated animals", "setting": "[1]; [3]", "result": "fewer cells"}, {"measurement": "mean cell counts in spinal cord vs chronic control (d40) EAE animals", "setting": "[1]; after 20, 30 or 40 days of treatment, p<0.05", "result": "significantly lower"}, {"measurement": "mean cell count in spinal cord vs non-EAE animals", "setting": "[1]; after 40 days of treatment", "result": "not different"}, {"measurement": "mean cell count in spinal cord 10 days after removal vs continuous treatment", "setting": "[1]", "result": "significant increase"}, {"measurement": "mean cell count in spinal cord 10 days after removal vs continuous treatment", "setting": "[1]; [3]", "result": "significantly increased"}, {"measurement": "rate of cell loss in spinal cord", "setting": "[1]; slope of linear regression of mean cell counts (r^2=0.90)", "result": 8, "unit": "cells/mm^2/day"}, {"measurement": "receptor saturation levels maintained at all times", "setting": "α4β1", "result": "> 10", "unit": "nm"}, {"measurement": "percentage of plaques exhibiting remyelination (frequency of shadow plaques in the spinal cord)", "setting": "[2]; after 20 days of administration", "result": 68, "unit": "%"}, {"measurement": "percentage of plaques exhibiting remyelination (incidence)", "setting": "[2]; after 30 days of administration", "result": 77, "unit": "%"}, {"measurement": "percentage of plaques exhibiting remyelination (incidence)", "setting": "[2]; after 40 days of administration", "result": 87, "unit": "%"}, {"measurement": "treated animals in which paralysis was reversed to a clinical score of 1", "setting": "[2]; starting clinical score of 2 (full bilateral hind limb paralysis)", "result": 50, "unit": "%"}]}]}
